Data set [1] concerns T-24. Description: Inhibition of cell migration in human T24 cells at 0.25 uM incubated for 12 hrs by scratch assay (reference value: 66 %). The data set is classed as functional.
The subject of data set [2] is T-24. Nature of the data set: Induction of cell cycle arrest in human T24 cells assessed as accumulation of cells at G1 phase at 0.13 uM incubated for 24 hrs by RNase A/Propidium Iodide staining based flow cytometry analysis (reference value: 43.80 %). The data set is classed as functional.
The subject of data set [3] is T-24. Nature of the data set: Induction of cell cycle arrest in human T24 cells assessed as accumulation of cells at G2/M phase at 0.50 uM incubated for 24 hrs by RNase A/Propidium Iodide staining based flow cytometry analysis (reference value: 22.67 %). The data set is classed as functional. Particulars: dose 0.5 µM. (In flow cytometry, cells or beads pass a laser one at a time.)

Data set [4] concerns T-24. Description: Induction in apoptosis in human T24 cells assessed as viable cells at 0.13 uM incubated for 48 hrs by Annexin V-FITC staining based flow cytometry analysis (reference value: 90.44 %). Particulars: read-out: Activity. The data set is classed as functional.
The subject of data set [5] is T-24. Description: Induction in apoptosis in human T24 cells assessed as viable cells at 0.25 uM incubated for 48 hrs by Annexin V-FITC staining based flow cytometry analysis (reference value: 90.44 %). The data set is classed as functional. The conditions noted are these: read-out: Activity.
The test system of data set [6] is T-24. Description: Induction in apoptosis in human T24 cells assessed as viable cells at 0.5 uM incubated for 48 hrs by Annexin V-FITC staining based flow cytometry analysis (reference value: 90.44 %). The data set is classed as functional. The conditions noted are these: read-out: Activity.
Data set [7] deals with T-24. Description: Induction in apoptosis in human T24 cells assessed as total apoptotic cells at 0.125 to 0.50 uM incubated for 48 hrs by Annexin V-FITC staining based flow cytometry analysis (reference value: 8 %). The data set is classed as functional. The conditions noted are these: dose 0.125-0.5 µM, at 0.125 to 0.5 µM.
Data set [8] relates to T24. Description: Inhibition of AKT phosphorylation in human T24 cells incubated for 24 hrs by Western blotting analysis. The data set is classed as cell-based. The conditions noted are these: dose 0.13-0.5 µM. (Immunoblotting shows a protein as a band on a membrane.)
Data set [9] in a line: Downregulation of BMX expression level in human T24 cells at 0.5 uM incubated for 24 hrs by Western blotting analysis relative to control. The data set is classed as functional, T-24.
Data set [10] can be described thus: Downregulation of AKT expression level in human T24 cells at 0.13 to 0.50 uM incubated for 24 hrs by Western blotting analysis relative to control. The conditions noted are these: dose 0.13-0.5 µM, at 0.13 to 0.5 µM. The data set is classed as functional, T-24.
A short description of data set [11]: Toxicity in ICR mouse assessed as body weight change at 100 mg/kg, ip administered once for 14 days. The data set is classed as organism-based. The conditions noted are these: in vivo, 336 h, time 14 day.
Data set [12] is described as follows: Half life in Sprague-Dawley rat at 5 mg/kg, iv measured upto 24 hrs. The data set is classed as ADME, organism-based. The conditions noted are these: in vivo.
Data set [13] is described as follows: Cmax in Sprague-Dawley rat at 5 mg/kg, iv measured upto 24 hrs. The conditions noted are these: in vivo. The data set is classed as ADME, organism-based.
A short description of data set [14]: AUC(0 to t) in Sprague-Dawley rat at 5 mg/kg, iv measured upto 24 hrs. The conditions noted are these: in vivo. The data set is classed as ADME, organism-based.
The subject of data set [15] is MB49. Description: Antitumor immunity against mouse MB49 cells implanted in male C57BL/6 mouse assessed as increase in infiltration of CD3+ cells at 1 mg/kg,iv bid measured after 14 days immunofluorescence based analysis. The data set is classed as functional, organism-based. Particulars: time 14.0 day.
Data set [16] has as its system MB49. Description: Antitumor immunity against mouse MB49 cells implanted in male C57BL/6 mouse assessed as increase in infiltration of CD4+ cells at 1 mg/kg,iv bid measured after 14 days immunofluorescence based analysis. The data set is classed as functional, organism-based. Particulars: time 14.0 day.
The test system of data set [17] is MB49. Description: Antitumor immunity against mouse MB49 cells implanted in male C57BL/6 mouse assessed as increase in infiltration of CD8+T cells at 1 mg/kg,iv bid measured after 14 days immunofluorescence based analysis. The data set is classed as functional, organism-based. Particulars: time 14.0 day.
Data set [18] is described as follows: Solubility of the compound in Solutol HS-15. The data set is classed as physicochemical.

Converted amounts (≈) assume the structure as drawn. The source made the active and inactive calls. The calls are words filed in the database; no cut-off is given here.

A word on the half-life: it is how long it takes for the measured level to halve. Broadly, the Cmax is the peak of the concentration-time curve. Usually AUC(0-t) stands for exposure summed from dosing to a finite time, without extrapolation to infinity. For orientation: solubility means the concentration that dissolves in the medium under given conditions. Higher therefore signals a readily soluble substance. `C[C@H]1CCC/C=C/[C@@H]2C[C@H](O)C[C@H]2[C@H](OC(=O)c2cccnc2)/C=C/C(=O)O1` registered a wound closure at 0.25 µM in data set [1] of 17%. For the same compound, the Activity in data set [2] is reported as 47.36%; in [3], 14.82%; in data set [7], 31%; in data set [9], 35%; in [10] it was 62%; in [11], “Non-toxic”. In addition, in data set [4], the viability at 0.13 µM was 89.2%. In addition, the viability at 0.25 µM in data set [5] amounted to 66.9%. Further, the viability at 0.5 µM in data set [6] came to 65.6%. Also, the inhibition entry in [8] is “Dose-dependent-effect”. Further, the half-life in [12] was 21.6 min. The compound further had a maximum concentration (Cmax) in data set [13] of 1460 ng/mL. The AUC(0-t) at 24 h in data set [14] stood at 1350 ng·h/mL. Besides, the result in data set [15], in data set [16] and in data set [17] was Active. In addition, the concentration in solution in [18] (solubility) came to 2000 µg/mL (≈ 5.19 mM).

The record behind these values is ChEMBL document CHEMBL6103652, “Niacin Ester Derivative of Brefeldin A as a Potential Dual-Target Arf1/BMX Inhibitor for Bladder Cancer” (J Nat Prod, 2025).
